Usually Ki stands for the dissociation constant of the complex between target and ligand, obtained from inhibition or displacement. Low values mean tighter binding, high ones weaker binding.

We go through 14 compounds from BindingDB's records for doi:10.1016/0896-6273(93)90149-l (The Scripps Research Institute, 1993).

In experiment [1] the target is 5-hydroxytryptamine receptor 7 (Rattus norvegicus, UniProt P32305).
In experiment [2] the target is T1, 5-hydroxytryptamine receptor 1A (Rattus norvegicus, UniProt P19327).
T1 sequence (P19327 whole entry): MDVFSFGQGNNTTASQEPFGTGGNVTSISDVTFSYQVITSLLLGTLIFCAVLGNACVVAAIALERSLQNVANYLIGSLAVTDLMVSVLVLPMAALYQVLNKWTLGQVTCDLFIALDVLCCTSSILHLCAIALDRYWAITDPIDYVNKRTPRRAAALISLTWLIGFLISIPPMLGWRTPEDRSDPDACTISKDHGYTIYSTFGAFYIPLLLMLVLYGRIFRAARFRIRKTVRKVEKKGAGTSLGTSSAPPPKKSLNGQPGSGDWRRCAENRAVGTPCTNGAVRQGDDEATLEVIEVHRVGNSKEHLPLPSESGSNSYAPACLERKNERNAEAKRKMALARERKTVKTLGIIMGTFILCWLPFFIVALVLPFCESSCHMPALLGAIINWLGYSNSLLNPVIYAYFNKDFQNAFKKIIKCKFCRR

Sequence of 5-hydroxytryptamine receptor 7 (P32305 whole entry): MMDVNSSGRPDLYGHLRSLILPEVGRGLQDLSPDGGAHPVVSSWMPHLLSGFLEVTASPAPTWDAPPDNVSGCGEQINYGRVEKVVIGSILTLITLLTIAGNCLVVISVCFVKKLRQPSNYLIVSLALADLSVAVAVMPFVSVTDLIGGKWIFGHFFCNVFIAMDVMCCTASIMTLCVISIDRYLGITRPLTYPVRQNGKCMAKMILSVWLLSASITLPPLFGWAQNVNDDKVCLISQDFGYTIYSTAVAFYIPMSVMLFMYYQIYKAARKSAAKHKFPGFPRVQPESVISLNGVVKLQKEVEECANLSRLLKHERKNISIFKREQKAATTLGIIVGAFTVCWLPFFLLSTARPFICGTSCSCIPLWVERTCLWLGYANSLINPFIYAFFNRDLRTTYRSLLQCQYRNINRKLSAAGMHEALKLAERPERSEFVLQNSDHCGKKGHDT

In the case of `COc1ccccc1N1CCN(CCCCN2C(=O)c3ccccc3C2=O)CC1` [2-{4-[4-(2-Methoxy-phenyl)-piperazin-1-yl]-butyl}-isoindole-1,3-dione], the Ki in experiment [1] was found to be 79.1 nM.

As for `NCCc1ccc(O)c(O)c1`, the Ki in experiment [1] and in experiment [2] was 545 nM each time.

`COc1cc(N)c(Cl)cc1C(=O)NC1CN2CCC1CC2` (stereo not given) [ZACOPRIDE,R] came in with an inhibition constant (Ki) in experiment [1] of 545 nM. That is a sub-micromolar value.

Turning to `O=C1CC2(CCCC2)CC(=O)N1CCCCN1CCN(c2ncccn2)CC1` [BUSPAR], the affinity in experiment [1] corresponds to a Ki of 375 nM.

In the case of `CC[C@@H](CO)NC(=O)[C@@H]1C=C2c3cccc4c3c(cn4C)C[C@H]2N(C)C1`, the results for the Ki in experiment [1] and in experiment [2] were 17 nM and 545 nM, respectively.

In the case of `CC(C)NCC(O)COc1cccc2[nH]ccc12` (stereo not given) [LB-46], the Ki was 545 nM in experiment [1] and 31 nM in experiment [2].

Take `Cc1nc2sccn2c(=O)c1CCN1CCC(=C(c2ccc(F)cc2)c2ccc(F)cc2)CC1`: affinity in experiment [1] was put at a Ki of 33 nM.

Take `CCCN(CCC)C1CCc2cccc(O)c2C1` (stereo not given): the inhibition constant (Ki) in experiment [1] is 53 nM.

For the compound `CN1C[C@H](C(=O)N[C@]2(C)O[C@@]3(O)[C@@H]4CCCN4C(=O)[C@H](Cc4ccccc4)N3C2=O)C=C2c3cccc4[nH]cc(c34)C[C@H]21` [12'-hydroxy-2'-methyl-5'alpha-(phenylmethyl)ergotaman-3',6',18-trione], the figures for the Ki in experiment [1] and in experiment [2] were 17 nM and 3 nM, respectively.

The compound `CNS(=O)(=O)Cc1ccc2[nH]cc(CCN(C)C)c2c1` [Sumax] yielded a Ki in experiment [1] of 545 nM.

As to `CSc1ccc2c(c1)C(N1CCN(C)CC1)Cc1ccccc1S2` (stereo not given) [methanesulfonic acid;1-methyl-4-(3-methylsulfanyl-5,6-dihydrobenzo[b][1]benzothiepin-5-yl)piperazine], the affinity in experiment [2] corresponds to a Ki of 8.7 nM.

In the case of `NCCc1c[nH]c2ccc(C(N)=O)cc12` [[3H]-5-carboxamidotryptamine], the inhibition constant Ki in experiment [1] is 0.45 nM.

For the compound `CN1C[C@@H](NS(=O)(=O)N(C)C)C[C@@H]2c3cccc4c3c(cn4C)C[C@H]21` [MESULERGINE], the Ki in experiment [1] stood at 9.3 nM; in experiment [2], 545 nM.

As to `CN1C[C@H](CNC(=O)OCc2ccccc2)C[C@@H]2c3cccc4c3c(cn4C)C[C@H]21` [METERGOLINE], the inhibition constant Ki in experiment [1] came to 16 nM; in experiment [2], 273 nM.
